From PMC12819154, “High-throughput peptide-centric local stability assay extends protein–ligand identification to membrane proteins, tissues and bacteria” (Nature Structural & Molecular Biology, 2025)

Experiments:
Type in all cases: biochemical
GuaC = target: T1, GuaC (Escherichia coli, UniProt P60560); assay: HT-PELSA limited trypsin proteolysis MS, dose-response; conditions: desalted E. coli lysate, Mg2+ (10 mM MgCl2 added), 25 °C, 30 min; allosteric
T1 construct: endogenous full-length protein in desalted E. coli lysate
T1 sequence (P60560 1-347): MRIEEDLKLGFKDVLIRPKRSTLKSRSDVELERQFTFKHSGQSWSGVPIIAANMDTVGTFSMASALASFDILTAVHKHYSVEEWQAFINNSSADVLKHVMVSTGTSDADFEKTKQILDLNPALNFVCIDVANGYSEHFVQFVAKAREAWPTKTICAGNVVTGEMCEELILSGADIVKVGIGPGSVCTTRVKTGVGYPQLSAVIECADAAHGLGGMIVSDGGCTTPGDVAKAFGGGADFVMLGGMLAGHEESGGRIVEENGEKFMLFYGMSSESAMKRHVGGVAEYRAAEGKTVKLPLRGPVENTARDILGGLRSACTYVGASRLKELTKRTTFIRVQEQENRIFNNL

pbpG = target: T2, pbpG (Escherichia coli, UniProt P0AFI5); assay: HT-PELSA limited trypsin proteolysis MS, single concentration; conditions: crude E. coli lysate, 10 μM ampicillin, 25 °C, 30 min
T2 construct: endogenous protein in crude E. coli lysate
T2 sequence (P0AFI5 26-310): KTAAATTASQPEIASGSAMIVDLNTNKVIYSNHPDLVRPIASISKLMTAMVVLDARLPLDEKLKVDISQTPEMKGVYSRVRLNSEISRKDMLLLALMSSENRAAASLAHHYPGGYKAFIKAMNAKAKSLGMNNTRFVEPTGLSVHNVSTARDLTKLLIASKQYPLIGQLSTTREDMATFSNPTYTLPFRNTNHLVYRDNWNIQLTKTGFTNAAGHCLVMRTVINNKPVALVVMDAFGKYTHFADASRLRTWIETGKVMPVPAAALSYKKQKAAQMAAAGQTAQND

mrcA = target: T3, mrcA (Escherichia coli, UniProt P02918); assay: as above; conditions: crude E. coli lysate, 10 μM ampicillin, 25 °C, 30 min; C-terminal transpeptidase domain
T3 construct: endogenous membrane protein in crude E. coli lysate
T3 sequence (P02918 1-850): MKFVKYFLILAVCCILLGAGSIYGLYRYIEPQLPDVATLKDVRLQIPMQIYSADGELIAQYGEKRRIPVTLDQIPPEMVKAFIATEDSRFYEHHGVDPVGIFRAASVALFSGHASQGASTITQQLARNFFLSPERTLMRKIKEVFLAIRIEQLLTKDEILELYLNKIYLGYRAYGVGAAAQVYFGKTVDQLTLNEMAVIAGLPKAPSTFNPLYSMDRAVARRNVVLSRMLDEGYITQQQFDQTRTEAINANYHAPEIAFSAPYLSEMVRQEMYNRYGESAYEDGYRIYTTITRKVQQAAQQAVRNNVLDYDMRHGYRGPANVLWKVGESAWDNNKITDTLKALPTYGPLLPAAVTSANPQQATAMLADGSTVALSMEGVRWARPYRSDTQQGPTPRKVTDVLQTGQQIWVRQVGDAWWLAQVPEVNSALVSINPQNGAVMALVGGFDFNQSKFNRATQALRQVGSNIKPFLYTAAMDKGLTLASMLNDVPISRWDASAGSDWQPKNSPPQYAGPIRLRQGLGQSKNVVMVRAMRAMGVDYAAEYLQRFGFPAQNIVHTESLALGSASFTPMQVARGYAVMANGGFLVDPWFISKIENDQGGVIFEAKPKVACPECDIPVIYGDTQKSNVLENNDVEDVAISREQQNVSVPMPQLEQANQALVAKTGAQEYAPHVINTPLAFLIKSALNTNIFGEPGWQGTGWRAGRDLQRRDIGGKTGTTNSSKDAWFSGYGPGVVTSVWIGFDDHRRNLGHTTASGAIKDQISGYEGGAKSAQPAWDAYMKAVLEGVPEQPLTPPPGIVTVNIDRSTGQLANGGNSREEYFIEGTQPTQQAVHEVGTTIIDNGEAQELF

mrcB = target: T4, mrcB (Escherichia coli, UniProt P02919); assay: as above; conditions: crude E. coli lysate, 10 μM ampicillin, 25 °C, 30 min; C-terminal transpeptidase domain
T4 construct: endogenous membrane protein in crude E. coli lysate
T4 sequence (P02919 1-844): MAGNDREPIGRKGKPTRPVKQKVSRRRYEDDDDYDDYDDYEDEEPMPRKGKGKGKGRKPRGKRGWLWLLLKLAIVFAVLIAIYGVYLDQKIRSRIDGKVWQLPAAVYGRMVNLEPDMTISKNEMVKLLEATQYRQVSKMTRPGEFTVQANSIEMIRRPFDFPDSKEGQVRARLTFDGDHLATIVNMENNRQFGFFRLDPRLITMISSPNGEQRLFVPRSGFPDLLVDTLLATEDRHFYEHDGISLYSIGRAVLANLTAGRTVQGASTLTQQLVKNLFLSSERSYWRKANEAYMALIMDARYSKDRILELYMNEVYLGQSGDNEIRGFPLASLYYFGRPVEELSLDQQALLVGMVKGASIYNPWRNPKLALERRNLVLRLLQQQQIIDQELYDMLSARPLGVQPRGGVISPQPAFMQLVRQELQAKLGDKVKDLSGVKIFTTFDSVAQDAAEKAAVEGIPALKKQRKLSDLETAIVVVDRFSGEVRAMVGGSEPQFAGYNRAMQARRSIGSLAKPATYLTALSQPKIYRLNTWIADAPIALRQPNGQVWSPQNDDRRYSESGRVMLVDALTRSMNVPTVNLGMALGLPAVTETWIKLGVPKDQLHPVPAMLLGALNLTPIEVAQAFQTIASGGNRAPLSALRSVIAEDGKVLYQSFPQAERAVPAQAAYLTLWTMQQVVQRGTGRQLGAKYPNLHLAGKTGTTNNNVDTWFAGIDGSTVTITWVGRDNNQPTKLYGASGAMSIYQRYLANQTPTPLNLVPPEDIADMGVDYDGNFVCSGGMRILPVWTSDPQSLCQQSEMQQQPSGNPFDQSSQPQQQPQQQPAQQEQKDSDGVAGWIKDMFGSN

ftsI = target: T5, ftsI (Escherichia coli, UniProt P0AD68); assay: as above; conditions: crude E. coli lysate, 10 μM ampicillin, 25 °C, 30 min
T5 construct: endogenous membrane protein in crude E. coli lysate
T5 sequence (P0AD68 1-577): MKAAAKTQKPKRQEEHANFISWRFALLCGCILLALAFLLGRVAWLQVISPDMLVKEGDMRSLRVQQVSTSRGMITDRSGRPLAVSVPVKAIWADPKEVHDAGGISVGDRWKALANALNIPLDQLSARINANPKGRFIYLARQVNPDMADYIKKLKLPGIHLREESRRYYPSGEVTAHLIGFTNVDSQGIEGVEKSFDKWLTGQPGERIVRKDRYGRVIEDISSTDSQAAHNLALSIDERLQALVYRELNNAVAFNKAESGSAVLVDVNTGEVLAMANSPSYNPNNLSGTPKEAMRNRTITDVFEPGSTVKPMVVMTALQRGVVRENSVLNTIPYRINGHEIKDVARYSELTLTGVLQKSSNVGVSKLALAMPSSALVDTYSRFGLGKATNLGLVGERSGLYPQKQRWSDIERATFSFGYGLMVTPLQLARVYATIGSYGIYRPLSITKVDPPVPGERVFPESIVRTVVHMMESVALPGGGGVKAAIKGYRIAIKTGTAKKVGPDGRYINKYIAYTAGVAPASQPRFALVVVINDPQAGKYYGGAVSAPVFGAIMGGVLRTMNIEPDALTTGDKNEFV

dacB = target: T6, dacB (Escherichia coli, UniProt P24228); assay: as above; conditions: crude E. coli lysate, 10 μM ampicillin, 25 °C, 30 min
T6 construct: endogenous protein in crude E. coli lysate

α subunit Prkaa2 of Ampk = target: T7, α subunit Prkaa2 of Ampk (Mus musculus, UniProt Q8BRK8); assay: HT-PELSA limited trypsin proteolysis MS, dose-response; conditions: mouse heart lysate in PBS, 25 °C, 30 min, 0.2 nM-20 μM
T7 construct: endogenous catalytic subunit of AMPK in mouse heart lysate

Csn1ke = target: T8, Csn1ke (Mus musculus, UniProt Q9JMK2); assay: as above; conditions: mouse heart lysate in PBS, 25 °C, 30 min, 0.2 nM-20 μM
T8 construct: gene Csnk1e; endogenous protein in mouse heart lysate; printed Csn1ke read as Csnk1e
T8 sequence (Q9JMK2 1-416): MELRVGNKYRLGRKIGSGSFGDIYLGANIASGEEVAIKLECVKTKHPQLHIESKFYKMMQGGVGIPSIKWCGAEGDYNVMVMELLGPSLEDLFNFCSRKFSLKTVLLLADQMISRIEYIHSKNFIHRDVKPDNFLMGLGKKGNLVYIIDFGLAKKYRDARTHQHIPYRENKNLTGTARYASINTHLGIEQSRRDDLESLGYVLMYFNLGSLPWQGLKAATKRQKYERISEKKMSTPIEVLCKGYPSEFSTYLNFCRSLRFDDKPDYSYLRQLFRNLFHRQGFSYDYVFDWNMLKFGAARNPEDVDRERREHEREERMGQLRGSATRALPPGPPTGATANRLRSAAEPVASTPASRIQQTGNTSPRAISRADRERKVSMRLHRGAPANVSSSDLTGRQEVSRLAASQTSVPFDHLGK

T7 sequence (Q8BRK8 whole entry): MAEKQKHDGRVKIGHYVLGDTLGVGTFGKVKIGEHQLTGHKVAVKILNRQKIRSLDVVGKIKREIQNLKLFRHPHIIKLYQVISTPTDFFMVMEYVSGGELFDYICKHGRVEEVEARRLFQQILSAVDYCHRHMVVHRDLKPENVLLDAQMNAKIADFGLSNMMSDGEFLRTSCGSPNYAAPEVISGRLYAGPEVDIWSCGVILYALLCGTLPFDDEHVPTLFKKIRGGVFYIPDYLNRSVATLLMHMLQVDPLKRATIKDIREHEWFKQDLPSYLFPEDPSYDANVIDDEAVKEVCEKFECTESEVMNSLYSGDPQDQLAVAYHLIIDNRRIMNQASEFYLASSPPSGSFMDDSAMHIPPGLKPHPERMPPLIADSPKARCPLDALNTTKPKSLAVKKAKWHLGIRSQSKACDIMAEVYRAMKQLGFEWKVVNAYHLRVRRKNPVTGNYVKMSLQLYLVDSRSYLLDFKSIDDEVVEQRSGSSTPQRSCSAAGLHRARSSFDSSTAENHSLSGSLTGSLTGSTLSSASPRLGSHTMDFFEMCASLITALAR
T6 sequence (P24228 21-477): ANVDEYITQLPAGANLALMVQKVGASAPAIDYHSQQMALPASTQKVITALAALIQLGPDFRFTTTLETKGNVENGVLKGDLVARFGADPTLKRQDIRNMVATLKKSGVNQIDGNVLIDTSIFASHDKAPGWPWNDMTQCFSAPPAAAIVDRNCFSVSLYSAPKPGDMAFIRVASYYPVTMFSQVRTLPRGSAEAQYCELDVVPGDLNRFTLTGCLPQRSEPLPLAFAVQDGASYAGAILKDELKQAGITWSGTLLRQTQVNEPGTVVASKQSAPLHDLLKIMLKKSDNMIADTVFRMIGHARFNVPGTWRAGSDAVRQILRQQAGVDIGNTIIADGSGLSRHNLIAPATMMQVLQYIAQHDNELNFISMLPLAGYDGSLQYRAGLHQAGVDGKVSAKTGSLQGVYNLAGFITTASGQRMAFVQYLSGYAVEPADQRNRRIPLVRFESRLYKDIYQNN

SMILES: Nc1ncnc2c1ncn2[C@@H]1O[C@H](COP(=O)(O)OP(=O)(O)OP(=O)(O)O)[C@@H](O)[C@H]1O [ATP]
- pEC50 (GuaC): Among the non-annotated ATP binders, we identify GuaC

SMILES: CC1(C)S[C@@H]2[C@H](NC(=O)[C@H](N)c3ccccc3)C(=O)N2[C@H]1C(=O)O [ampicillin]
- HT-PELSA limited trypsin proteolysis MS, single concentration (pbpG): HT-PELSA identified five known targets of ampicillin (mrcA, mrcB, ftsI, dacB and pbpG
- HT-PELSA limited trypsin proteolysis MS, single concentration (mrcA): HT-PELSA identified five known targets of ampicillin (mrcA, mrcB, ftsI, dacB and pbpG
- HT-PELSA limited trypsin proteolysis MS, single concentration (mrcB): HT-PELSA identified five known targets of ampicillin (mrcA, mrcB, ftsI, dacB and pbpG
- HT-PELSA limited trypsin proteolysis MS, single concentration (ftsI): HT-PELSA identified five known targets of ampicillin (mrcA, mrcB, ftsI, dacB and pbpG
- HT-PELSA limited trypsin proteolysis MS, single concentration (dacB): HT-PELSA identified five known targets of ampicillin (mrcA, mrcB, ftsI, dacB and pbpG

SMILES: CCN(CC)CCNC(=O)c1c(C)[nH]c(/C=C2\C(=O)Nc3ccc(F)cc32)c1C [sunitinib]
- pEC50 (α subunit Prkaa2 of Ampk): the α subunit Prkaa2 of Ampk, Camk2g, Csn1ke and Csnk1g2
- pEC50 (Csn1ke): the α subunit Prkaa2 of Ampk, Camk2g, Csn1ke and Csnk1g2
